Substitutions are numbered along the chain they refer to. The source made the active and inactive calls. The rule behind the calls is not given here.

This note sets out measurements from ChEMBL document CHEMBL4190382, “Targeting lysine specific demethylase 4A (KDM4A) tandem TUDOR domain - A fragment based approach” (Bioorg Med Chem Lett, 2018).

In assay [1] the target is T1, Lysine-specific demethylase 4A (Homo sapiens, UniProt O75164).
T1 sequence (O75164 whole entry): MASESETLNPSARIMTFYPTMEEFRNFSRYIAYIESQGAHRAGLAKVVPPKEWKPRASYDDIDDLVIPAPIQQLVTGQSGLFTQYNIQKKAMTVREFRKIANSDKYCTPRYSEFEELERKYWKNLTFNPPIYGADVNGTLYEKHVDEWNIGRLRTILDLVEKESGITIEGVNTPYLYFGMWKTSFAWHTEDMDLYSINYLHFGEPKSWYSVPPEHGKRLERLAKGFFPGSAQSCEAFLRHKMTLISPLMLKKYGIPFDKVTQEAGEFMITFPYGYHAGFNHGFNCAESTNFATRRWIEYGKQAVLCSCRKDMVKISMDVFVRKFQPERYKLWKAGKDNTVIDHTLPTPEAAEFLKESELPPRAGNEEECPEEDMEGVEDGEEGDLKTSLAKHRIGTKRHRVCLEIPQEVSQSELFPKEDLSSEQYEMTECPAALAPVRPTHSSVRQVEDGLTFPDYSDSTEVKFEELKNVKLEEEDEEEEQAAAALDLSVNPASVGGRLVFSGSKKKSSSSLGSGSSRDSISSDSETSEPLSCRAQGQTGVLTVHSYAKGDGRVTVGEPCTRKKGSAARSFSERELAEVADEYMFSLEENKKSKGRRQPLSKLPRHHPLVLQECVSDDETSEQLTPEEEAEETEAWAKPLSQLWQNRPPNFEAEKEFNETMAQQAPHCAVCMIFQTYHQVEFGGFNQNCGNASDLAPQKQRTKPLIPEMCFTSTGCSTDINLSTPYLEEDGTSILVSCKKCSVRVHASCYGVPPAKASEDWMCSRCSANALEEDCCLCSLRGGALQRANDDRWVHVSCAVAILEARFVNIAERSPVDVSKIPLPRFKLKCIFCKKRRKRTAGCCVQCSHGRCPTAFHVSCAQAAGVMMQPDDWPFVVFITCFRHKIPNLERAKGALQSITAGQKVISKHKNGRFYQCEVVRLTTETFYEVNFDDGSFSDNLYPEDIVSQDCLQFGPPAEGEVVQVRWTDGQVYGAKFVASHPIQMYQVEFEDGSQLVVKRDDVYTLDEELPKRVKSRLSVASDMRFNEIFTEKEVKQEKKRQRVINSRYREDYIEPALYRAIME
Kind of assay: (§1) Inhibition of NanoLuc-KDM4A-TUDOR domain (unknown origin) binding to Histone H3.3-HaloTag expressed in 293T cells incubated for 18 hrs by Nano-BRET based target engagement assay. Type of assay: cell-based. (In general: Bioluminescence resonance energy transfer reports proximity on the nanometre scale.)

Assay [2] concerns the target T2, Lysine-specific demethylase 4A (Homo sapiens) (UniProt O75164).
T2 sequence (whole entry): T1 sequence (O75164 whole entry)
The description is as §1. Type of assay: cell-based.

The subject of assay [3] is T3, Lysine-specific demethylase 4A (Homo sapiens), O75164 [W967A].
T3 sequence (whole entry): T1 sequence (O75164 whole entry) with W967A
In words: Binding affinity to thrombin cleavable N-terminal 6His tagged and 13C-IVLM labeled human KDM4A tandem TUDOR domain (897 to 1011 residues) W967A mutant expressed in Escherichia coli BL21(DE3)-T1R by ITC method. (ITC needs no label: the signal is the heat of the interaction.)

What is called EC50 is the midpoint of the concentration-response curve. Higher therefore signals weaker potency. In turn, `CN(C)C[C@H]1C2CCC(c3ccccc3)(C2)[C@H]1O` (stereo partly drawn) came in with an EC50 in assay [1] of 105 µM. In addition, the inhibition entry in assay [2] was “Dose-dependent effect”. Moreover, the outcome in assay [3] was inactive.
